Reference: patent US6458351B2, “Naturally extracted and synthetic hypoglycemic or hypolipidemic compositions” (priority 1999, dated 2002)

What was measured:
[1] = tested on: yeast cells (Yeast strain Carlsbergensis); assay: Yeast fermentation assay (rate of CO2 production under anaerobic conditions); assay type: cell-based, S. carlsbergensis; settings: synthetic chromium complexes; for Activity in yeast fermentation assay, CO2 production (in words): different concentrations
Experimental: The cells were kept on a solid chromium depleted medium that contained 6.7 g yeast nitrogen base, 20 g of glucose, and 18 g agar per liter. Cells were grown over night in a liquid medium without Cr. Yeast cells were harvested during stationary phase, washed twice and resuspended in 0.1M phosphate buffer pH 5.7. An aliquot of 3×10^8 cells/ml was anaerobically incubated at 30° C. in Warburg vessels in the presence of 10 mM glucose and the examined fraction of GTF extracted from yeast. Enhancement of fermentation rate by natural or synthetic chromium compounds was measured.
Yeast cells were grown over night in liquid medium without Cr. Yeast cells were harvested during stationary phase, washed twice and resuspended in 0.1M phosphate buffer pH 5.7. An aliquot of 3×10^7 cells/ml was anaerobically incubated at 30° C. in Warburg vessels in the presence of 10 mM glucose and the examined fractions extracted from Saltbush.
The activity of the synthetic chromium complexes was examined in the yeast fermentation assay as described above. All the complexes were tested by adding samples of the subject complex, and measuring the rate of CO2 production.

[2] = tested on: streptozoatocin diabetic rats; assay: Effect on insulin activity / blood glucose in streptozotocin diabetic rats; assay type: in vivo; settings: single dose; insulin at marginal dose 0.005-0.025 mg/Kg body weight
Experimental: Sprague Dawly male rats weighing 120-130 g were injected subcutanously with a single dose of streptozotocin (60 mg/kg body weight) in 0.5 ml citrate buffer, 0.05 M pH 4.5. Plasma glucose concentrations were measured seven days later using commercial glucometer. Animals with blood glucose higher than 250 mg/dl were chosen for the subsequent test with fractions purified from yeast extract or the Saltbush, as described in section 5.1 and 5.2.
When a marginal dose of insulin (0.005-0.025 mg/Kg body weight ) was injected into streptozoatocin diabetic rats a decrease of 10%-15% in blood glucose was observed after the injection. A single dose of active chromium fraction extraction from yeast decreased blood glucose by 15%-20%. A combination of both insulin and chromium containing natural compound from yeast created much higher reduction in blood glucose of 40%-45% reduction.

Row | Compound | Activity in yeast fermentation assay, CO2 production (in words) [1] | Inhibition of yeast fermentation at high concentrations (in words) [1] | Activity in yeast fermentation assay, CO2 production (in words) ([1]; listed as Chromium axcorbate) | Decrease in blood glucose [2]
1 | N[C@@H](CCC(=O)N[C@@H](CS)C(=O)NCC(=O)O)C(=O)O.[Cr] [Cr-GSH, Chromium-Glutathione] | increases the production of CO2 | partial inhibition |  | 
2 | CC(=O)N[C@@H](CS)C(=O)O.[Cr] [Cr-NAC, Chromium N-Acetyl Cysteine] | increases the production of CO2 | partial inhibition |  | 
3 | Chromium Ascorbate [Cr-Asc] | most active | without any inhibition | enhances the production of CO2 | 
4 | insulin |  |  |  | 10%-15%
